In brackets after ≈: the same amount, converted by molar mass. Values belong to the compound of their own block, whether it stands above or below them.
Legend:
Assay type in all cases: functional
Citrobacter freundii = assay: In vitro antibacterial activity against gram-negative Citrobacter freundii
Streptococcus pneumoniae = assay: In vitro antibacterial activity against gram-positive Streptococcus pneumoniae
Shigella boydii = assay: In vitro antibacterial activity against gram-negative Shigella boydii
Klebsiella pneumoniae = assay: In vitro antibacterial activity against gram-negative Klebsiella pneumoniae
Staphylococcus aureus = assay: In vitro antibacterial activity against gram-positive Staphylococcus aureus
[1] = tested on: Staphylococcus epidermidis; assay: In vitro antibacterial activity against gram-positive Staphylococcus epidermidis

SMILES: Cl.O=C(O)c1cn(C2CC2)c2c(F)c(CNc3ccc(Cl)cc3)c(F)cc2c1=O
- MIC (Citrobacter freundii): 1.56 µg/mL

SMILES: Cl.O=C(O)c1cn(C2CC2)c2c(F)c(CNc3ccc(F)c(Cl)c3)c(F)cc2c1=O
- MIC (Citrobacter freundii): 0.78 µg/mL

SMILES: CN[C@H](CC(C)C)C(=O)N[C@H]1C(=O)N[C@@H](CC(N)=O)C(=O)N[C@H]2C(=O)N[C@H]3C(=O)N[C@H](C(=O)N[C@H](C(=O)O)c4cc(O)cc(O)c4-c4cc3ccc4O)[C@H](O)c3ccc(c(Cl)c3)Oc3cc2cc(c3O[C@@H]2O[C@H](CO)[C@@H](O)[C@H](O)[C@H]2O[C@H]2C[C@](C)(N)[C@H](O)[C@H](C)O2)Oc2ccc(cc2Cl)[C@H]1O [VANCOMYCIN]
- MIC (Citrobacter freundii): > 6.25 µg/mL

SMILES: CN1CCN(Cc2c(F)cc3c(=O)c(C(=O)O)cn(C4CC4)c3c2F)CC1.Cl
- MIC (Citrobacter freundii): 1.56 µg/mL

SMILES: Cc1cc(C)nc(NCc2c(F)cc3c(=O)c(C(=O)O)cn(C4CC4)c3c2F)c1.Cl
- MIC (Citrobacter freundii): 0.78 µg/mL

SMILES: Cc1ccc(NCc2c(F)cc3c(=O)c(C(=O)O)cn(C4CC4)c3c2F)cc1C.Cl
- MIC (Citrobacter freundii): 1.56 µg/mL

SMILES: Cl.O=C(O)c1cn(C2CC2)c2c(F)c(CNc3cccc(Cl)c3)c(F)cc2c1=O
- MIC (Citrobacter freundii): 1.56 µg/mL

SMILES: O=C(O)c1cn(C2CC2)c2c(F)c(N3CCNCC3)c(F)cc2c1=O
- MIC (Citrobacter freundii): 0.049 µg/mL (≈ 0.14 µM)
- MIC (Streptococcus pneumoniae): 0.049 µg/mL (≈ 0.14 µM)
- MIC (Shigella boydii): 0.049 µg/mL (≈ 0.14 µM)
- MIC (Klebsiella pneumoniae): 0.049 µg/mL (≈ 0.14 µM)
- MIC (Staphylococcus aureus): 0.195 µg/mL (≈ 0.558 µM)
- MIC [1]: 0.39 µg/mL (≈ 1.12 µM)

SMILES: Cc1ccc(NCc2c(F)cc3c(=O)c(C(=O)O)cn(C4CC4)c3c2F)cc1.Cl
- MIC (Citrobacter freundii): 0.78 µg/mL

The next lines start with the values.

- MIC (Citrobacter freundii): ≤ 0.049 µg/mL
SMILES: Cl.O=C(O)c1cn(C2CC2)c2c(F)c(CNC3CC3)c(F)cc2c1=O

- MIC (Citrobacter freundii): 0.098 µg/mL
- MIC (Streptococcus pneumoniae): 1.56 µg/mL
- MIC (Shigella boydii): 0.195 µg/mL
- MIC (Klebsiella pneumoniae): 0.098 µg/mL
- MIC (Staphylococcus aureus): > 6.25 µg/mL
- MIC [1]: > 6.25 µg/mL
SMILES: CC(C)NCc1c(F)cc2c(=O)c(C(=O)O)cn(C3CC3)c2c1F.Cl

- MIC (Citrobacter freundii): ≤ 0.049 µg/mL
SMILES: CCNCc1c(F)cc2c(=O)c(C(=O)O)cn(C3CC3)c2c1F.Cl

- MIC (Citrobacter freundii): 0.098 µg/mL (≈ 0.279 µM)
- MIC (Streptococcus pneumoniae): 0.195 µg/mL (≈ 0.555 µM)
- MIC (Shigella boydii): 0.098 µg/mL (≈ 0.279 µM)
- MIC (Klebsiella pneumoniae): 0.098 µg/mL (≈ 0.279 µM)
- MIC (Staphylococcus aureus): 0.78 µg/mL (≈ 2.22 µM)
- MIC [1]: 0.78 µg/mL (≈ 2.22 µM)
SMILES: CCn1cc(C(=O)O)c(=O)c2cc(F)c(N3CCNC(C)C3)c(F)c21 (centres undefined) [LOMEFLOXACIN]

- MIC (Citrobacter freundii): 0.098 µg/mL
SMILES: CCCCNCc1c(F)cc2c(=O)c(C(=O)O)cn(C3CC3)c2c1F.Cl

- MIC (Citrobacter freundii): 0.195 µg/mL
SMILES: Cl.O=C(O)c1cn(C2CC2)c2c(F)c(CN3CCNCC3)c(F)cc2c1=O

- MIC (Citrobacter freundii): 0.098 µg/mL
- MIC (Streptococcus pneumoniae): 0.78 µg/mL
- MIC (Shigella boydii): 0.098 µg/mL
- MIC (Klebsiella pneumoniae): 0.098 µg/mL
- MIC (Staphylococcus aureus): 12.5 µg/mL
- MIC [1]: 12.5 µg/mL
SMILES: Cl.NCc1c(F)cc2c(=O)c(C(=O)O)cn(C3CC3)c2c1F

- MIC (Citrobacter freundii): 0.195 µg/mL
SMILES: CCCNCc1c(F)cc2c(=O)c(C(=O)O)cn(C3CC3)c2c1F.Cl

- MIC (Citrobacter freundii): 0.39 µg/mL
SMILES: Cl.O=C(O)c1cn(C2CC2)c2c(F)c(CNc3ccccc3)c(F)cc2c1=O

- MIC (Citrobacter freundii): 0.39 µg/mL
SMILES: Cl.O=C(O)c1cn(C2CC2)c2c(F)c(CNc3ccc(F)cc3)c(F)cc2c1=O

From ChEMBL document CHEMBL1139448, “Synthesis and antibacterial activity of 7-(substituted)aminomethyl quinolones” (2004)
